What all share (type): in vivo, C57BL/6J mice
Series [1] is described as follows: Pharmacokinetics of ketamine and its metabolite hydroxynorketamine in mouse serum, hippocampus and frontal cortex (noncompartmental analysis, LC-MS/MS). The conditions noted are these: for AUC0-∞ / Cmax / MRT / t0.5λz / tmax / λz: ketamine 10 mg/kg i.p.
The test system of series [2] is mice subjected to CRS and CRS + ZnD. The series can be described thus: Sucrose preference test (SPT) in mice subjected to CRS or CRS + ZnD. On the procedure:
(§1) All the compounds/drugs used in the study were obtained commercially, except for hyperforin (sodium salt), which was received as a gift from Dr. Wilmar Schwabe GmbH and Co (Karlsruhe, Germany). […] The control group received only 0.9% NaCl.
(§2) One week after acclimation, the mice were subjected to either a zinc-adequate feed (ZnA, 50 mg/kg) or zinc-deficient/low-Zn feed (ZnD, 3 mg/kg). Beginning from the second week, some ZnD mice were additionally subjected to 3 weeks of CRS. At the beginning of the 5th week, the mice were subjected to their appropriate treatment schedules or behavioral tests (see schemes in the figures).
(§3) CRS was performed in accordance with the procedures of [Ding et al. (2016]) with modifications. Mice from the stress groups were restrained in well-ventilated tubes with caps and holes for breathing (in a separate room from the control groups) for 3 h/day over 3 weeks. After each restraint period, the mice were transferred to housing cages. The control mice were housed at 6 mice per cage in an enriched environment and were handled every third day.
Seven days before the tests, the control and stressed mice were singly housed. The tests were carried out as follows. Two bottles (water and 1% sucrose solution) were placed in each cage 63 h before the test. Twenty-four hours later, the bottles were switched from right to left. Fifteen hours before the tests, the animals were deprived of food, water, and sucrose. The tests lasted 2 h, and sucrose preference was calculated as a percentage of the volume of sucrose intake over the total volume of fluid intake (water and sucrose solution). The SPT was performed during the light phase.

Series [3] relates to Zn levels in the Hp and FC. The series can be described thus: Analysis of zinc (F-AAS) in the Hp and FC. The conditions noted are these: CRS + ZnD mice; three doses. The procedure:
as §1
The samples were mineralized before the experiments. Briefly, three independent test portions of 0.5 g each were weighed from each sample and transferred to Teflon vessels. Then, 2 mL of 30% H2O2 and 6 mL of 65% HNO3 (V) were added, and the mixture was subjected to wet mineralization in a closed system in a Magnum II mineralizer (ERTEC). Mineralization was carried out for 75 min with three cycles of magnetron operation, where the first 30 min was at 60% power, next 15 min was at 80% power, and the remaining 30 min was at 100% power. The mineralized solution thus obtained was heated on a hot plate at 120 °C for 60 min to remove the excess reagents. The samples were then quantitatively transferred to 10 mL flasks and used to determine the zinc content via the F–AAS method (adsorption and emission technique). An atomic absorption spectrometer (iCE 3500, Thermo Scientific, UK) was used to measure the Zn content; each sample was analyzed independently thrice, and the obtained results are presented as mean value ± standard error of mean (SEM).

Series [4] concerns mice subjected to CRS and CRS + ZnD. The series can be described thus: Tail suspension test (TST) in mice subjected to CRS or CRS + ZnD. The conditions noted are these: three doses, 72 h after the last treatment. The procedure:
as §1, §2, §3
The TST was performed as described in a previous work ([Pochwat et al., 2018]). Briefly, each mouse was suspended individually by the tail using adhesive tape (2 cm from the tail tip) affixed to a solid flat surface, and immobility times were measured for 6 min. […]

Regarding `N[C@@]1(c2ccccc2Cl)CCC[C@@H](O)C1=O` [Hydroxynorketamine, (2R,6R;2S,6S)-hydroxynorketamine], the “AUC0-∞” value was found to be 148.57 µg·min/g in series [1] (frontal cortex, CRS + ZnD mice); 154.18 µg·min/g in series [1] (frontal cortex, CRS mice); 171.66 µg·min/g in series [1] (frontal cortex, Control mice); 114.29 µg·min/g in series [1] (hippocampus, CRS + ZnD mice); 121.64 µg·min/g in series [1] (hippocampus, CRS mice); 137.36 µg·min/g in series [1] (hippocampus, Control mice). Moreover, the Cmax in series [1] (frontal cortex, CRS + ZnD mice) is on record as 1838.33 ng/g; in series [1] (frontal cortex, CRS mice), 2020.00 ng/g; in series [1] (frontal cortex, Control mice), 1920.83 ng/g; in series [1] (hippocampus, CRS + ZnD mice), 1540.00 ng/g; in series [1] (hippocampus, CRS mice), 1536.83 ng/g; in series [1] (hippocampus, Control mice) it was 1591.33 ng/g. The Cmax was 1726.00 ng/mL in series [1] (serum, CRS + ZnD mice); 1269.00 ng/mL in series [1] (serum, CRS mice); 1152.71 ng/mL in series [1] (serum, Control mice). Also, the MRT was found to be 1.137 h in series [1] (frontal cortex, CRS + ZnD mice); 1.212 h in series [1] (frontal cortex, CRS mice); 1.245 h in series [1] (frontal cortex, Control mice); 1.172 h in series [1] (hippocampus, CRS + ZnD mice); 1.213 h in series [1] (hippocampus, CRS mice); 1.349 h in series [1] (hippocampus, Control mice). Moreover, the MRT came to 1.22 h in series [1] (serum, CRS + ZnD mice); 1.351 h in series [1] (serum, CRS mice); 1.462 h in series [1] (serum, Control mice). The t0.5λz is 52.49 min in series [1] (frontal cortex, CRS + ZnD mice); 59.38 min in series [1] (frontal cortex, CRS mice); 50.01 min in series [1] (frontal cortex, Control mice); 54.06 min in series [1] (hippocampus, CRS + ZnD mice); 54.52 min in series [1] (hippocampus, CRS mice); 58.88 min in series [1] (hippocampus, Control mice). Further, the t0.5λz in series [1] (serum, CRS + ZnD mice) worked out at 56.28 min; in series [1] (serum, CRS mice), 59.11 min; in series [1] (serum, Control mice), 62.33 min. In addition, the tmax in series [1] (frontal cortex, CRS + ZnD mice) is 0.167 h; in series [1] (frontal cortex, CRS mice), 0.167 h; in series [1] (frontal cortex, Control mice), 0.167 h; in series [1] (hippocampus, CRS + ZnD mice), 0.167 h; in series [1] (hippocampus, CRS mice) it was 0.167 h; in series [1] (hippocampus, Control mice), 0.167 h. Further, the tmax is 0.167 h in series [1] (serum, CRS + ZnD mice); 0.167 h in series [1] (serum, CRS mice); 1 h in series [1] (serum, Control mice). For the same compound, the λz in series [1] (frontal cortex, CRS + ZnD mice) turned out to be 0.013 min⁻¹; in series [1] (frontal cortex, CRS mice), 0.012 min⁻¹; in series [1] (frontal cortex, Control mice), 0.014 min⁻¹; in series [1] (hippocampus, CRS + ZnD mice) it was 0.013 min⁻¹; in series [1] (hippocampus, CRS mice), 0.013 min⁻¹; in series [1] (hippocampus, Control mice), 0.012 min⁻¹. Also, the λz in series [1] (serum, CRS + ZnD mice) turned out to be 0.013 min⁻¹; in series [1] (serum, CRS mice), 0.012 min⁻¹; in series [1] (serum, Control mice), 0.011 min⁻¹. In addition, the “tissue-to-serum ratios for the metabolite as share of the values observed for the parent compound” value in series [1] (in the FC) was “about 80%”; in series [1] (in the serum and Hp), “about 40%”. In series [1] (serum, control and study groups), the “metabolite-to-parent Cmax ratio” value was ~1.
As to `CN(C)CCCN1c2ccccc2CCc2ccccc21` [IMI, imipramine], the “sucrose preference in the SPT” value in series [2] (CRS + ZnD mice, 10 mg/kg chronically (14 days), SPT 24 h after the last treatment) is on record as “the same was not observed”; in series [2] (CRS mice, 10 mg/kg chronically (14 days), SPT 24 h after the last treatment) it was “restored sucrose preference”.
On to `C[C@@H](CN1CCC(Cc2ccccc2)CC1)[C@@H](O)c1ccc(O)cc1` [Ro, Ro 25–6981], for which, in series [3], the “Zn levels in the Hp and FC” value is recorded as “reduced the Zn levels”. The “immobility time in the TST” value in series [4] is listed as “ineffective”. The “sucrose preference in the SPT” value in series [2] (CRS + ZnD mice, three doses (ketamine 10 mg/kg, Ro 10 mg/kg, Hyp 2.5 mg/kg + Lan 10 mg/kg), 24 h after the last treatment) is “failed to restore sucrose preference”; in series [2] (CRS mice, three doses (ketamine 10 mg/kg, Ro 10 mg/kg, Hyp 2.5 mg/kg + Lan 10 mg/kg), 24 h after the last treatment), “did not show any statistically significant antidepressant-like activities”.

A word on the Cmax: it is the maximum level reached in the sampled fluid or tissue. In general, MRT refers to the average time that molecules of a dose stay in the body.
